What was measured:
[1] = Pharmacokinetics of rebastinib given with carboplatin; assay type: in vivo; details: time point 2; 50 and 100 mg BID with carboplatin
Method: (§1) This is a Phase 1b/2 study where patients with mesothelioma are administered rebastinib in combination with carboplatin. The study follows a Simon 2-stage design at the MTD and R2PD. Safety and tolerability, PK and PD, and preliminary efficacy data was used to determine the RP2D. Upon determination of the RP2D or MTD, the Simon 2-stage design is initiated to dose evaluable patients using the RP2D or MTD across three indication-specific cohorts (breast cancer, ovarian cancer, and mesothelioma).

[2] = system: advanced or metastatic solid tumors; experiment: Phase 1b/2 study of rebastinib in combination with paclitaxel (Part 1; overall safety); assay type: in vivo, human
From the text: This is an open-label Phase 1b/2 multicenter study in patients with advanced or metastatic solid tumors where paclitaxel may be considered appropriate treatment. Rebastinib will be administered in combination with paclitaxel in repeated 28-day cycles to primarily assess the safety, tolerability and preliminary efficacy of the combination. Adverse events (AEs) will be assessed, and laboratory values, vital sign measurements, electrocardiograms (ECGs), ophthalmologic examinations, physical examinations and Eastern Cooperative Oncology Group (ECOG) Performance Status (PS) will be obtained to evaluate the safety and tolerability of rebastinib when administered in combination with paclitaxel. Pharmacokinetic (PK) and pharmacodynamic (PD) samples will be collected at pre-specified time points.
The study consists of two parts (Part 1 and Part 2). In Part 1, patients were assigned to one of two pre-defined dose levels of rebastinib (50 or 100 mg BID) in combination with paclitaxel administered by intravenous (IV) infusion at 80 mg/m^2. Paclitaxel is to be administered by IV infusion at 80 mg/m^2 over approximately 60 minutes on Day 1, Day 8 and Day 15 of repeated 28-day cycles. Rebastinib is to be administered orally prior to the paclitaxel infusion.
Each arm was planned to enroll at least 12 evaluable patients. Additionally, if rebastinib at 100 mg BID was deemed unsafe, an additional arm dosing at 75 mg BID of rebastinib in combination with paclitaxel may be initiated. Up to 36 evaluable patients were dosed in Part 1. Safety was continuously monitored, and any arm may be terminated early if deemed unsafe by the Sponsor.
Safety and tolerability, PK and PD, and preliminary efficacy data obtained in Part 1 was used to determine the RP2D. Data for at least 12 evaluable patients through Cycle 1 must be available in an arm to declare the dose as the RP2D. Patients must receive ≥80% of planned doses of rebastinib and paclitaxel in Cycle 1 to be considered as evaluable. Enrollment of patients was paused for determination of the RP2D prior to initiation of Part 2. An RP2D was chosen by the Sponsor in consultation with the Investigators.

[3] = system: breast cancer, ovarian cancer, and mesothelioma; experiment: Phase 1b/2 study of rebastinib in combination with carboplatin; assay type: in vivo, human
Method: as §1
Each cohort initially enrolls up to 18 evaluable patients in the first stage. Patients must receive at least 1 dose of the combination and have 1 post-baseline assessment (including assessment of clinical progression), or be discontinued prior to the postbaseline disease assessment due to an AE at least possibly related to rebastinib, to be considered evaluable. Tumor response is assessed according to Response Evaluation Criteria in Solid Tumors (RECIST) Version 1.1. The decision to enroll patients beyond the first stage is based on response assessments obtained after the first post-dose response assessment of the last patient enrolled in the first stage of a cohort. […] If ≤4 responses are seen in a cohort, the cohort will be terminated. If >4 responses are seen prior to the last evaluable patient in the first stage, expanding the cohort may be triggered earlier. Enrollment in each cohort will pause between the first and second stage of the Simon two-stage for evaluation of response. Patients will receive study treatment until they develop progressive disease, experience unacceptable toxicity, or withdraw consent.
At a second time point, 22 patients were enrolled in the study (3 cohorts: 3 patients at rebastinib 50 mg BID+carboplatin AUC5, 14 patients at rebastinib 100 mg BID+carboplatin AUC5, and 5 pts at rebastinib 100 mg BID+carboplatin AUC6). The median age was 61 yrs. Most frequent diagnoses were breast cancer (n=5); neuroendocrine carcinoma (n=3); pancreatic adenocarcinoma, NSCLC, and cholangiocarcinoma (n=2 each). The median number of prior anti-cancer therapies was 4 (1, 12). Median duration of treatment was 8.4 weeks (0.9, 22.6).

[4] = time point 1, rebastinib and carboplatin combination

CNC(=O)c1cc(Oc2ccc(NC(=O)Nc3cc(C(C)(C)C)nn3-c3ccc4ncccc4c3)c(F)c2)ccn1 [rebastinib]
Rebastinib exposure [1]: dose proportional | Partial response, patients ([2]; Part 1, rebastinib 50 mg BID with weekly paclitaxel 80 mg/m^2): 5 patients | Partial response, patients ([2]; Part 1, rebastinib 100 mg BID with weekly paclitaxel 80 mg/m^2): 3 patients | Partial response, patients total ([2]; Part 1, rebastinib 50 and 100 mg BID with weekly paclitaxel 80 mg/m^2): 8 patients | Tolerability ([2]; Part 1, rebastinib 50 and 100 mg BID with weekly paclitaxel 80 mg/m^2, patients with advanced tumors): generally well tolerated | Muscular weakness ([2]; rebastinib 100 mg BID with weekly paclitaxel 80 mg/m^2, required dose reduction to 50 mg BID): high incidence | Tolerability ([3]; time point 1, rebastinib 50 mg and 100 mg BID in combination with carboplatin AUC5): tolerated | Tolerability ([3]; time point 1, rebastinib 100 mg BID in combination with carboplatin AUC6 (3 patients)): tolerated | Muscular weakness [3, 4]: No muscular weakness | Response in the dose escalation cohorts [3, 4]: No response | Partial response (PR) ([3]; time point 2, 22 patients enrolled, rebastinib 50 or 100 mg BID + carboplatin AUC5 or AUC6, preliminary): 1 | Muscular weakness in the dose expansion cohort ([3]; time point 2, rebastinib 100 mg BID with carboplatin AUC5, RP2D adjusted to 50 mg BID): increased frequency | CBR at 6 weeks ([3]; time point 2, rebastinib + carboplatin, preliminary): 52%
